# Reference: PMC10269165 (Antimicrobial Agents and Chemotherapy, 2023)
# Like-named read-outs stand apart in the source and are kept apart here.
# What was measured:
# [1] = tested on: catechol O-methyltransferase (COMT); design: method as in PMID 15755652, doi:10.1007/s40495-018-0157-y; conditions: cited from earlier work
# [2] = tested on: catechol O-methyltransferase (COMT); design: method as in PMID 15755652, doi:10.1007/s40495-018-0157-y; conditions: cited from earlier work; remark: listed apart in the source
# [3] = tested on: susceptible isolate of H. contortus, exsheathed L3 larvae; assay: Larval motility assay (LMA), Worminator; assay type: cell-based, Haemonchus contortus; conditions: for anthelmintic activity in LMA: first round, up to 125 μM, any time point
# Description: The H. contortus isolates used were TxPh-2011-S (Texas A&M University, USA) and UGA MDR 2020 (University of Georgia Athens, USA). TxPh-2011-S (Texas A&M University, USA) was originally isolated from Pronghorn antelope in West Texas in 2011 and is fully drug susceptible, phenotypically determined by the DrenchRite larval development assay (LDA; Microbial Screening Technologies, Kemps Creek, Australia). To establish this as a laboratory isolate, it was initially passaged in goats at Texas A&M University and then at The University of Georgia using both goats and sheep, and it is currently maintained in lambs at Louisiana State University. A nemabiome assay ([69]) was conducted at the University of Calgary to confirm that the isolate is 100% H. contortus. The UGA MDR 2020 (University of Georgia Athens, USA) isolate is resistant to ivermectin, benzimidazoles, levamisole, and moxidectin, as determined by the DrenchRite LDA. To establish this as a laboratory isolate, feces collected from a sheep farm in Georgia with known history of multiple anthelmintic resistance were cultured. Two donor goats were infected with the larvae recovered, which were morphologically ([70]) identified as 89% H. contortus. A fecal egg count reduction test (FECRT) was then performed in the infected goats. First, a combination treatment with albendazole at 15 mg/kg and ivermectin at 0.4 mg/kg was performed, followed by a treatment with levamisole at 12 mg/kg. Later, and to confirm resistance to moxidectin, another treatment was administered using a dose of 0.4 mg/kg of moxidectin. Posttreatment feces were recovered, coprocultures were established, and L3 larvae were identified as 100% H. contortus. Resistance to all drugs was subsequently confirmed using a DrenchRite assay.
# For LMAs, the first phase testing using compounds NSC133100 and NSC177383 was done using the Worminator system in parallel with the LDA. Initial stock solutions of 12.5 mM were prepared for each compound using 100% DMSO as a solvent. Initial stock solutions (25 μL) were then diluted in 475 μL of culture media to yield working stock solutions of 625.00, 156.30, 39.10, 9.80, 2.40, 0.60, 0.20, 0.04, and 0.00 μM in 5% DMSO for each drug. In plate, 200 μL of working stock solutions were then diluted in 800 μL of culture media, yielding concentrations of 125.00, 31.25, 7.81, 1.95, 0.49, 0.12, and 0.00 μM in 1% DMSO. For the second phase of testing, compounds showing anthelmintic activity with the LDA were tested in a second round at higher concentrations than in the first phase of testing. Initial stocks of 50 mM were prepared for compounds NSC133100, NSC177383, NSC145612, and NSC56410 using 100% DMSO as a solvent. Initial stock solutions (25-μL portions) were then diluted in 475 μL of culture media consisting of 65% Lauria-Bertani (LB) (Thermo Fisher Scientific, Branchburg, NJ), 25% NCTC (Sigma-Aldrich), 10% fetal bovine serum (Atlanta Biologicals, Flowery Branch, GA), Pen/Strep (Sigma-Aldrich) at a final concentration of […], and amphotericin B (Sigma-Aldrich) at a final concentration of […]. The working stock solutions yielded concentrations of 2,500.00, 625.00, 156.30, 39.10, 9.80, 2.40, and 0.00 μM in 5% DMSO for each compound. In each well in the plate, 200 μL of working stock solutions were then diluted in 800 μL of culture media, yielding final concentrations of 500.00, 125.00, 31.30, 7.81, 1.95, 0.49, and 0.00 μM in 1% DMSO.
# For the motility assays, 24-well plates with inserts were used (Costar, catalog no. 3379; Corning, Inc., Corning, NY). Portions (640 μL) of culture media were added to each well, and approximately 50 exsheathed larvae contained in 160 μL of culture media in each insert. Once pretreatment readings were taken, 160 μL of the drug solution was added to the well, and another 40 μL was added to the insert, reaching the final concentrations described in the protocol above. All concentrations were tested in triplicate. […]
smiles,measurement,setting,value
"O=c1c(O)cccc2cc(O)c(O)c(O)c12 [NSC35676, purpurogallin]",inhibition of COMT catalytic activity,[1],inhibit the catalytic activity
same,inhibition of COMT catalytic activity,[2],inhibit the catalytic activity
CO[C@H]1/C=C/O[C@@]2(C)Oc3c(C)c(O)c4c(O)c(cc(O)c4c3C2=O)NC(=O)/C(C)=C\C=C\[C@H](C)[C@H](O)[C@@H](C)[C@@H](O)[C@@H](C)[C@H](OC(C)=O)[C@@H]1C [NSC133100],Percent inhibition of larval motility,"[3]; 0.12 µM, 1 hour",-7.4%
same,Percent inhibition of larval motility,"[3]; 0.12 µM, 4 hours",14.9%
same,Percent inhibition of larval motility,"[3]; 0.12 µM, 24 hours",22.9%
same,Percent inhibition of larval motility,"[3]; 0.12 µM, 48 hours",8.7%
same,Percent inhibition of larval motility,"[3]; 0.12 µM, 72 hours",26.1%
same,Percent inhibition of larval motility,"[3]; 0.12 µM, 96 hours",7.4%
same,Percent inhibition of larval motility,"[3]; 0.12 µM, Initial",-93.9%
same,Percent inhibition of larval motility,"[3]; 0.49 µM, 1 hour",-29.1%
same,Percent inhibition of larval motility,"[3]; 0.49 µM, 4 hours",4.3%
same,Percent inhibition of larval motility,"[3]; 0.49 µM, 24 hours",8.0%
same,Percent inhibition of larval motility,"[3]; 0.49 µM, 48 hours",-9.5%
same,Percent inhibition of larval motility,"[3]; 0.49 µM, 72 hours",-14.9%
same,Percent inhibition of larval motility,"[3]; 0.49 µM, 96 hours",-9.0%
same,Percent inhibition of larval motility,"[3]; 0.49 µM, Initial",-118.5%
same,Percent inhibition of larval motility,"[3]; 1.95 µM, 1 hour",-57.6%
same,Percent inhibition of larval motility,"[3]; 1.95 µM, 4 hours",-16.4%
same,Percent inhibition of larval motility,"[3]; 1.95 µM, 24 hours",-8.4%
same,Percent inhibition of larval motility,"[3]; 1.95 µM, 48 hours",-37.5%
same,Percent inhibition of larval motility,"[3]; 1.95 µM, 72 hours",-49.0%
same,Percent inhibition of larval motility,"[3]; 1.95 µM, 96 hours",-50.7%
same,Percent inhibition of larval motility,"[3]; 1.95 µM, Initial",-159.9%
same,Percent inhibition of larval motility,"[3]; 7.81 µM, 1 hour",27.5%
same,Percent inhibition of larval motility,"[3]; 7.81 µM, 4 hours",9.1%
same,Percent inhibition of larval motility,"[3]; 7.81 µM, 24 hours",25.3%
same,Percent inhibition of larval motility,"[3]; 7.81 µM, 48 hours",35.3%
same,Percent inhibition of larval motility,"[3]; 7.81 µM, 72 hours",32.1%
same,Percent inhibition of larval motility,"[3]; 7.81 µM, 96 hours",38.0%
same,Percent inhibition of larval motility,"[3]; 7.81 µM, Initial",-74.0%
same,Percent inhibition of larval motility,"[3]; 31.25 µM, 1 hour",10.6%
same,Percent inhibition of larval motility,"[3]; 31.25 µM, 4 hours",7.1%
same,Percent inhibition of larval motility,"[3]; 31.25 µM, 24 hours",9.0%
same,Percent inhibition of larval motility,"[3]; 31.25 µM, 48 hours",35.2%
same,Percent inhibition of larval motility,"[3]; 31.25 µM, 72 hours",19.9%
same,Percent inhibition of larval motility,"[3]; 31.25 µM, 96 hours",28.7%
same,Percent inhibition of larval motility,"[3]; 31.25 µM, Initial",-64.8%
same,Percent inhibition of larval motility,"[3]; 125 µM, 1 hour",4.3%
same,Percent inhibition of larval motility,"[3]; 125 µM, 4 hours",-12.0%
same,Percent inhibition of larval motility,"[3]; 125 µM, 24 hours",3.2%
same,Percent inhibition of larval motility,"[3]; 125 µM, 48 hours",23.2%
same,Percent inhibition of larval motility,"[3]; 125 µM, 72 hours",3.1%
same,Percent inhibition of larval motility,"[3]; 125 µM, 96 hours",19.2%
same,Percent inhibition of larval motility,"[3]; 125 µM, Initial",-8.9%
same,anthelmintic activity in LMA,[3],no anthelmintic activity
CO[C@@H]1/C=C/O[C@@]2(C)Oc3c(C)c(O)c4c(c3C2=O)C(=N[C@@H]2CC[C@@H](O)O[C@H]2C)C=C(NC(=O)/C(C)=C\C(=O)[C@@H]2C[C@@H]2[C@H](O)[C@@H](C)[C@@H](O)[C@@H](C)[C@H](OC(C)=O)[C@@H]1C)C4=O [NSC177383],Percent inhibition of larval motility,"[3]; 0.12 µM, 1 hour",29.41%
same,Percent inhibition of larval motility,"[3]; 0.12 µM, 4 hours",4.95%
same,Percent inhibition of larval motility,"[3]; 0.12 µM, 24 hours",28.20%
same,Percent inhibition of larval motility,"[3]; 0.12 µM, 48 hours",2.41%
same,Percent inhibition of larval motility,"[3]; 0.12 µM, 72 hours",4.89%
same,Percent inhibition of larval motility,"[3]; 0.12 µM, 96 hours",-16.32%
same,Percent inhibition of larval motility,"[3]; 0.12 µM, Initial",-1.62%
same,Percent inhibition of larval motility,"[3]; 0.49 µM, 1 hour",25.94%
same,Percent inhibition of larval motility,"[3]; 0.49 µM, 4 hours",18.27%
same,Percent inhibition of larval motility,"[3]; 0.49 µM, 24 hours",23.09%
same,Percent inhibition of larval motility,"[3]; 0.49 µM, 48 hours",12.98%
same,Percent inhibition of larval motility,"[3]; 0.49 µM, 72 hours",-5.94%
same,Percent inhibition of larval motility,"[3]; 0.49 µM, 96 hours",-72.91%
same,Percent inhibition of larval motility,"[3]; 0.49 µM, Initial",-11.69%
same,Percent inhibition of larval motility,"[3]; 1.95 µM, 1 hour",30.56%
same,Percent inhibition of larval motility,"[3]; 1.95 µM, 4 hours",33.37%
same,Percent inhibition of larval motility,"[3]; 1.95 µM, 24 hours",18.80%
same,Percent inhibition of larval motility,"[3]; 1.95 µM, 48 hours",14.16%
same,Percent inhibition of larval motility,"[3]; 1.95 µM, 72 hours",-3.70%
same,Percent inhibition of larval motility,"[3]; 1.95 µM, 96 hours",-23.78%
same,Percent inhibition of larval motility,"[3]; 1.95 µM, Initial",21.82%
same,Percent inhibition of larval motility,"[3]; 7.81 µM, 1 hour",26.94%
same,Percent inhibition of larval motility,"[3]; 7.81 µM, 4 hours",26.72%
same,Percent inhibition of larval motility,"[3]; 7.81 µM, 24 hours",22.63%
same,Percent inhibition of larval motility,"[3]; 7.81 µM, 48 hours",34.44%
same,Percent inhibition of larval motility,"[3]; 7.81 µM, 72 hours",14.00%
same,Percent inhibition of larval motility,"[3]; 7.81 µM, 96 hours",-53.76%
same,Percent inhibition of larval motility,"[3]; 7.81 µM, Initial",22.03%
same,Percent inhibition of larval motility,"[3]; 31.25 µM, 1 hour",14.47%
same,Percent inhibition of larval motility,"[3]; 31.25 µM, 4 hours",38.95%
same,Percent inhibition of larval motility,"[3]; 31.25 µM, 24 hours",18.83%
same,Percent inhibition of larval motility,"[3]; 31.25 µM, 48 hours",26.89%
same,Percent inhibition of larval motility,"[3]; 31.25 µM, 72 hours",16.58%
same,Percent inhibition of larval motility,"[3]; 31.25 µM, 96 hours",-23.43%
same,Percent inhibition of larval motility,"[3]; 31.25 µM, Initial",28.34%
same,Percent inhibition of larval motility,"[3]; 125 µM, 1 hour",42.55%
same,Percent inhibition of larval motility,"[3]; 125 µM, 4 hours",10.81%
same,Percent inhibition of larval motility,"[3]; 125 µM, 24 hours",16.94%
same,Percent inhibition of larval motility,"[3]; 125 µM, 48 hours",42.97%
same,Percent inhibition of larval motility,"[3]; 125 µM, 72 hours",27.79%
same,Percent inhibition of larval motility,"[3]; 125 µM, 96 hours",41.45%
same,Percent inhibition of larval motility,"[3]; 125 µM, Initial",22.02%
same,anthelmintic activity in LMA,[3],no anthelmintic activity
